Measurements taken from patent publication US20060057559A1, “High-throughput cell migration screening assay” (Rigel Pharmaceuticals, Inc., priority 2004, published 2006).
“Also recorded” adds a separate entry of the source. Structures can show the parent of a compound that is named as a salt.

Experiments:
[1] = biological target: T1, EDG1 (Homo sapiens, UniProt P21453); test: Migration assay employing EDG1 as a migration molecule (T lymphoid cells overexpressing EDG1 migrating toward S1P, 96-well, CyQuant GR fluorescence); format: cell-based; details: migration in response to S1P, hydrochloride
T1 construct: expressed in transfected cells; host or cells: T lymphoid cell line (Jurkat, EDG1 #15 clone), retroviral TIM EDG1 vector, tetracycline-regulated
Protocol: (§1) Both cell lines were used to optimize assay parameters in order to maximize accuracy and throughput in an automated 96-well format. Compounds were added together with S1P in bottom receiver plate; lipid starved cells were placed in the upper filter plate. The T cell migration may be finished in 2 to 4 hours. The cells which migrated to the receiver plate were stained with a fluorescence dye (CyQuant GR™) and detected by a fluorescence plate reader.
On day one, EDG1 expressing cells were grown at 0.4 millions/ml in RPMI 1640 containing 10% lipid-free serum (Charcoal-Dextran-Stripped Fetal Bovine Serum, Cat# 100-502 (Gemini Bioproducts™)) for 24 hours. EDG1 cells are maintained below 1 million/ml at all times. On the next day, cells were spun down, washed once with serum-free medium and re-suspended in RPMI 1640 containing 0.1% BSA (fat-free, cell culture tested) (Cat# A8806 (SIGMA ALDRICH FLUKA CHEMICALS™)) at a density of 6×10^6 per ml. 170 μl RPMI 1640 (0.1% BSA) containing 20 nM S1P (Cat# SL-140 (BioMol™)) and/or desired drugs were added to the receiver plate of […] Millipore Multiscreen MIC™ plates (Cat# MAMI C3S 10, 3 um pore size (Millipore™)) and the filter plates were carefully placed over the receiver plate. […] After 30 min agitating at RT, the plate was read in a fluorescence plate reader using 480/520 nm filter set.

[2] = biological target: T2, EDG3 (Homo sapiens, UniProt Q99500); test: Migration assay employing EDG3 as a migration molecule (T lymphoid cells overexpressing EDG3 migrating toward S1P, 96-well, CyQuant GR fluorescence); format: cell-based
T2 construct: expressed in transfected cells; host or cells: T lymphoid cell line (Jurkat, EDG3 #1 clone), pNIGEDG3 vector, constitutive expression
Protocol: as §1
On day one, EDG3 expressing cells were grown at 0.8 millions/ml in RPMI 1640 containing 10% lipid-free serum (Charcoal-Dextran-Stripped Fetal Bovine Serum, Cat# 100-502 (Gemini Bioproducts™)) for 24 hours. EDG3 cells are maintained below 3 million/ml at all times. On the next day, cells were spun down, washed once with serum-free medium and re-suspended in RPMI 1640 containing 0.1% BSA (fat-free, cell culture tested) (Cat# A8806 (SIGMA ALDRICH FLUKA CHEMICALS™)) at a density of 8×10^6 per ml. 170 μl RPMI 1640 (0.1% BSA) containing 60 nM S1P (Cat# SL-140 (BiOMOl™)) and/or desired drugs were added to the receiver plate of […] Millipore Multiscreen MIC plates (Cat# MAMI C3S 10, 3 um pore size (Millipore™)) and the filter plates were carefully placed over the receiver plate. […] After 30 min agitating at RT, the plate was read in a fluorescence plate reader using 480/520 nm filter set.

T2 sequence (Q99500 whole entry): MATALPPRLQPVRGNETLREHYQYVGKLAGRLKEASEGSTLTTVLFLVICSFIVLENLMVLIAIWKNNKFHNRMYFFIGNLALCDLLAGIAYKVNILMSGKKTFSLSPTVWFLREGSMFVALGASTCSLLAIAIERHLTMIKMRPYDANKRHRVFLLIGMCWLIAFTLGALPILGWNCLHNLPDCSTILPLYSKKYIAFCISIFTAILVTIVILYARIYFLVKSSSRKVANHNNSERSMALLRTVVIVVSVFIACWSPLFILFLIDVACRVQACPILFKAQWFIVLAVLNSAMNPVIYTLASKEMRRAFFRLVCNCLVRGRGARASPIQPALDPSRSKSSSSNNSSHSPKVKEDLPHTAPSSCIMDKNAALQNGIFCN
T1 sequence (P21453 whole entry): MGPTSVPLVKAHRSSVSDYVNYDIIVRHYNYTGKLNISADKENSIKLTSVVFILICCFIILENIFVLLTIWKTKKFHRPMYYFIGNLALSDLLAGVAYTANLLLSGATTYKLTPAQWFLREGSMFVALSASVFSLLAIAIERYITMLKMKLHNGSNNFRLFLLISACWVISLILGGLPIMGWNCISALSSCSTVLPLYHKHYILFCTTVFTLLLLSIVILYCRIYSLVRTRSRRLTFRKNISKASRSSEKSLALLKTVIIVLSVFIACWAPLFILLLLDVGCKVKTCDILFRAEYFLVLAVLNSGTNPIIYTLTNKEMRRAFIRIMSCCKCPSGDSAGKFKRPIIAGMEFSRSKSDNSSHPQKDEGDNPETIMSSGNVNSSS

Compound	inhibition of migration of EDG1 #15 clone [1]	differential inhibition of EDG1 and EDG3 migration ([2]; EDG1 versus EDG3 clones, FIG. 10B)	inhibition of migration of EDG3 #1 clone ([2]; EDG3-overexpressing T lymphoid cells, migration in response to S1P)
CCCCCCCCc1ccc(CCC(N)(CO)CO)cc1 [FTY720, 2-amino-2(2-[4-octylphenylethyl)-1,3-propanediol hydrochloride]	inhibition of migration; also recorded: specifically inhibit; also recorded: inhibits the migration of EDG1#15 clone	–	–
Cc1ccc(C(=O)Nc2ccc(S(=O)(=O)O)c3cc(S(=O)(=O)O)cc(S(=O)(=O)O)c23)cc1NC(=O)c1cccc(NC(=O)Nc2cccc(C(=O)Nc3cc(C(=O)Nc4ccc(S(=O)(=O)O)c5cc(S(=O)(=O)O)cc(S(=O)(=O)O)c45)ccc3C)c2)c1 [suramin]	–	differential inhibition of EDG1 and EDG3 migration	specifically inhibit; also recorded: inhibition of EDG3 #1 clone migration
